# According to patent US20260216400A1, “CELL-[…] MOLECULE IMPARTING PROTEIN ADHESION […] CELLS” (THE UNIVERSITY OF OSAKA, priority 2023, published 2026):
# Experiments:
# Test in all cases: Binding of FITC-labeled collagen-binding peptides to coated wells (Example 6)
# type I collagen = type I collagen (Homo sapiens, UniProt P02452+P08123)
# type IV collagen = conditions: 37° C., 3 hours
# Experimental: (§1) The selectivity of collagen-binding peptides for components of the extracellular matrix was investigated. […] After washing, the fluorescence intensity was measured using a confocal laser scanning microscope.
# laminin = conditions: 37° C., 3 hours
# Experimental: as §1
# Chain of type I collagen (P08123 80-1119): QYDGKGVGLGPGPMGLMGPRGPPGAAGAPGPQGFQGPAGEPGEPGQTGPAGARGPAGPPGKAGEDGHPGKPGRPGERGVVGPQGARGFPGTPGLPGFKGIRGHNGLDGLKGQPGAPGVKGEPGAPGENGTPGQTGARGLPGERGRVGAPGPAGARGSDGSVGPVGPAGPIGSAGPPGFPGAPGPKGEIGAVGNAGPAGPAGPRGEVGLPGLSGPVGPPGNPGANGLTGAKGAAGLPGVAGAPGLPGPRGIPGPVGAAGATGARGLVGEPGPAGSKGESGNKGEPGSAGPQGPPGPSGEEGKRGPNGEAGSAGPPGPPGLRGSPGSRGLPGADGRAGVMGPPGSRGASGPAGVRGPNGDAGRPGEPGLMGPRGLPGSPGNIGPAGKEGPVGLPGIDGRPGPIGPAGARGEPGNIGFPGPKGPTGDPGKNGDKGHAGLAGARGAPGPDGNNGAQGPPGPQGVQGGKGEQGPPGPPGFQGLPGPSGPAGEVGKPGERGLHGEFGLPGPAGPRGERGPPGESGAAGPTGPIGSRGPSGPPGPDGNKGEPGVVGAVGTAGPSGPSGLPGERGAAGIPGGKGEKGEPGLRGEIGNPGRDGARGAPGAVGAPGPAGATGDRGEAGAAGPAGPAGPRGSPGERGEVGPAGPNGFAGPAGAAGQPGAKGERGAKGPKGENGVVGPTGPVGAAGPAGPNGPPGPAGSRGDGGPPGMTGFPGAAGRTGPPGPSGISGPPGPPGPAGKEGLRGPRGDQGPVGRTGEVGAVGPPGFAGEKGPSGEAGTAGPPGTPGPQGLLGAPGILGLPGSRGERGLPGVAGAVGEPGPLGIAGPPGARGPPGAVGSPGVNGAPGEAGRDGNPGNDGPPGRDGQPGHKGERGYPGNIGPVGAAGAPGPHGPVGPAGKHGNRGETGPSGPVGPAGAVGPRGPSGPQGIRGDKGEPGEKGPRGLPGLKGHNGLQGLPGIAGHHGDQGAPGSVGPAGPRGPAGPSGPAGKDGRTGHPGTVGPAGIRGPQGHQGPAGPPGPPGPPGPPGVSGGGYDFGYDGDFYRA
# Chain of type I collagen (P02452 162-1218): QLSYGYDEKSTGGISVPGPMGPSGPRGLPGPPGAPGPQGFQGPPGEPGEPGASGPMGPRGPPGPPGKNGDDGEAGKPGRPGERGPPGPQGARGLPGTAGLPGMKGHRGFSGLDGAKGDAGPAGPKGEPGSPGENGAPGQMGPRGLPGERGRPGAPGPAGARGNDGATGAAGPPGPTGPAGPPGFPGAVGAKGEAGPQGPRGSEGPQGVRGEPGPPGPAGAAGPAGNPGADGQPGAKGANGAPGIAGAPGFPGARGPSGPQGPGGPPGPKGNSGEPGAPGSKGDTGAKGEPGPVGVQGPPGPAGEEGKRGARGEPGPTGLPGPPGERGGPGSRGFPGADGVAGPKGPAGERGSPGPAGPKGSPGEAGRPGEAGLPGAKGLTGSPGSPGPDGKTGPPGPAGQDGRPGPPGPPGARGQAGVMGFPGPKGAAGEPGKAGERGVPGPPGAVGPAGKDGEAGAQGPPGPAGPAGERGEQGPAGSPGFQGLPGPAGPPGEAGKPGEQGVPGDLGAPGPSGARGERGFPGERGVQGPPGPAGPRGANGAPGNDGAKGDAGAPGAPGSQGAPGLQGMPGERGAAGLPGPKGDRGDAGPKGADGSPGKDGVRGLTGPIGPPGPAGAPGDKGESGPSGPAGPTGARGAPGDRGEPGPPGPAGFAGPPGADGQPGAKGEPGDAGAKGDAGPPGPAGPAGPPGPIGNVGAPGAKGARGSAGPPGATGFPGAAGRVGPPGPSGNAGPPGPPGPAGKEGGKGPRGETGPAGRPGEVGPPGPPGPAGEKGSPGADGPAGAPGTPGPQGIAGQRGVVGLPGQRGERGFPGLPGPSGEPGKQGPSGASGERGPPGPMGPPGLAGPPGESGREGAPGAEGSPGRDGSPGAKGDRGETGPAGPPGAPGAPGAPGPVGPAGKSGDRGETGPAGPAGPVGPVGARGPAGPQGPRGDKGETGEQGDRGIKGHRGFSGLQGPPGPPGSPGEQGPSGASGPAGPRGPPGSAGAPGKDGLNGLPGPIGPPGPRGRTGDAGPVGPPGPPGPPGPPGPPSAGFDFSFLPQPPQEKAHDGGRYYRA
Substance,"fluorescence intensity compared between peptides (type I collagen; 100 μM (box in FIG. 6), type I collagen, type IV collagen, laminin wells)","binding to type I collagen (fluorescence intensity) (type I collagen; coated wells, 37° C., 3 hours)","selectivity for components of the extracellular matrix (order) (type I collagen; type I collagen, type IV collagen, laminin)",binding to type IV collagen (fluorescence intensity) (type IV collagen),binding to laminin (fluorescence intensity) (laminin)
SYIRIADNTNIT,stronger than that of TKKTLRT,in a concentration-dependent manner,type I collagen>type IV collagen>laminin,in a concentration-dependent manner,in a concentration-dependent manner
TKKTLRT,,,,in a concentration-dependent manner,in a concentration-dependent manner
